US20060083691A1, “Intranasal opioid compositions, delivery devices and methods of using same” (priority 2000, published 2006)

Key:
Format in all cases: in vivo, human
[1] = Pharmacokinetics and bioequivalence of butorphanol formulation, unit-dose vs multi-dose delivery device; conditions: 2 mg intranasal
Method: The experiments described in this example compared bioavailability and other parameters of a butorphanol formulation when administered using a unit-dose or multi-dose delivery device. The butorphanol formulation used for this example (STADOL NS®) contained 10 mg butorphanol tartrate, 6.5 mg sodium chloride, 1.0 mg citric acid, 0.20 mg benzethonium chloride in purified water with 1.2 mg sodium hydroxide and hydrochloric acid added to adjust the pH to 5.0.
The multi-dose sprayer purported by its label to administer 0.1 ml of liquid composition by metering upon activation by the user. The unit-dose spray device was a disposable intranasal applicator that is commercially available from Pfeiffer of America under the designation “Unitdose Second Generation.” Each of the Pfeiffer spray applicators was charged with sufficient liquid to deliver a 0.1 ml dose of the butorphanol formulation. The associated glass containers were filled using a pipette under clean conditions, sealed and assembled to the applicator. Each of the applicators was weighed prior to use and after use. Qualified medical personnel administered one dose into each nostril, after which the applicator was recovered for weighing. In the case of the unit-dose applicators, two devices were used for each patient for a total of 2 mg butorphanol tartrate.
Pharmacokinetics and bioequivalence (intrasubject variabilitiy) of the above-described butorphanol formulation upon administration using either the multi-dose or unit dose delivery device was assessed. The study was initiated with 16 subjects, 15 of which completed the study to provide data for this analysis; one subject dropped out after the second period. The following analysis considers both raw and normalized data, with the latter standardized with respect to the dose dispensed.
For both the raw and normalized data, log transformations are applied to the pharmacokinetic endpoints Cmax, AUC(last), and AUC(inf). A mixed effects model was considered for each parameter. Fixed effects for the factors sequence (4 levels), period 3 levels) and device (2 levels) were included in the model. Additionally, gender, as well as the interactions between gender and each of sequence, period and device was included as a factor in each model to determine whether separate analyses would be necessary for males and females. A total of seven models were considered: Tmax, log of raw Cmax values, log of normalized Cmax values, log transformed values for raw and normalized AUC(last), and log values for raw and normalized AUC(inf). […] In addition, the lack of significance of the effects included in each model indicate that there was no evidence of unequal carryover between the two delivery devices. […]

[2] = Pharmacokinetics of single doses of intranasal butorphanol tartrate, three-way crossover study; conditions: for F(%): relative to 2 mg i.v.
Method: Pharmacokinetic parameters of single doses of intranasal butorphanol tartrate using a single-dose, metered sprayer were evaluated in a 24 subject, three-way crossover study. The intranasal formulation contained aqueous buffered solution (pH 5) having 0.2% sodium citrate and 0.2% citric acid and 1 mg of butorphanol tartrate per ml. […] Each volunteer received three treatments: (1) 2 mg of i.v. butorphanol, (2) 2 mg of intranasal butorphanol, and (3) 1 mg of intranasal butorphanol. Each treatment was separated by a 6 day washout period.

[3] = Pharmacokinetics of single or multiple doses of intranasal butorphanol tartrate, two-way crossover study
Method: Pharmacokinetic parameters of single doses or multi doses of intranasal butorphanol tartrate using a single-dose, metered sprayer were evaluated in a 12 subject, two-way crossover study. The butorphanol formulation used was as described in Example 2. Each volunteer received either 1 or 2 mg of intranasal butorphanol as a single does (Treatment A) and 1 or 2 mg of intranasal butorphanol every six hours for seven doses (Treatment B). The butorphaonol composition was substantially as described in Example 2. During phase 1, 12 subjects received a single 1 mg dose. During phase 2, those who received the 1 mg single dose received 1 mg every six hours for seven doses. During phase 3, those who received the 2 mg single dose received 2 mg every six hours for seven doses. Serial blood samples were collected over 12 hours. Pharmacokinetic parameters are show in Table 5.

[4] = Multiple Dose 1 mg q 6 hr intranasal
[5] = Multiple Dose 2 mg q 6 hr intranasal

## O=C(O)C(O)C(O)C(=O)O.Oc1ccc2c(c1)[C@@]13CCCC[C@@]1(O)[C@@H](C2)N(CC1CCC1)CC3 [butorphanol tartrate]
[1]; STADOL NS multi-dose device
  AUC0-t: about 9329 pg*hr/ml
  Cmax: about 4027 pg/ml
  Tmax: about 0.245 hr
[1]; unit-dose device
  AUC: about 10661 pg*hr/ml
[2]; 1 mg intranasal
  AUC0-t: 4.88 ± 1.5 ng·h/mL
  Cmax: 1.67 ± 0.7 ng/mL
  F(%): 80.2 ± 29.1%
[2]; 2 mg i.v.
  AUC0-t: 12.59 ± 2.3 ng·h/mL
  Cmax: 10.32 ± 2.7 ng/mL
[2]; 2 mg intranasal
  AUC0-t: 9.51 ± 1.9 ng·h/mL
  Cmax: 3.38 ± 1.3 ng/mL
  F(%): 77.6 ± 18.3%
[3]; [4]
  AUC0-t: 7.21 ng·h/mL
  Cmax: 1.55 ng/mL
  Tmax range: (0.25-3.0)
[3]; [5]
  AUC0-t: 15.75 ng·h/mL
  Cmax: 3.80 ng/mL
  Tmax range: (0.25-0.75)
[3]; Single Dose 1 mg intranasal
  AUC0-t: 3.80 ng·h/mL
  Cmax: 1.46 ng/mL
  Tmax range: (0.17-1.02)
[3]; Single Dose 2 mg intranasal
  AUC0-t: 9.55 ng·h/mL
  Cmax: 4.13 ng/mL
  Tmax range: (0.167-0.5)
